According to patent US9040506B2, “7,11-methanocycloocta [B] quinoline derivative as highly functionalizable acetylcholinesterase inhibitors” (priority 2010, dated 2015):
Like-named read-outs stand apart in the source and are kept apart here.

How the values were obtained:
erythrocyte h-AChE = target: T1, erythrocyte h-AChE (Homo sapiens, UniProt P22303); assay: IC50 erythrocyte h-AChE; format: biochemical
T1 construct: from tissue; host or cells: human erythrocytes

AChE [1] = target: T2, AChE (Homo sapiens, UniProt P22303); assay: AChE inhibition, general statements; format: biochemical
T2 sequence (P22303 32-614): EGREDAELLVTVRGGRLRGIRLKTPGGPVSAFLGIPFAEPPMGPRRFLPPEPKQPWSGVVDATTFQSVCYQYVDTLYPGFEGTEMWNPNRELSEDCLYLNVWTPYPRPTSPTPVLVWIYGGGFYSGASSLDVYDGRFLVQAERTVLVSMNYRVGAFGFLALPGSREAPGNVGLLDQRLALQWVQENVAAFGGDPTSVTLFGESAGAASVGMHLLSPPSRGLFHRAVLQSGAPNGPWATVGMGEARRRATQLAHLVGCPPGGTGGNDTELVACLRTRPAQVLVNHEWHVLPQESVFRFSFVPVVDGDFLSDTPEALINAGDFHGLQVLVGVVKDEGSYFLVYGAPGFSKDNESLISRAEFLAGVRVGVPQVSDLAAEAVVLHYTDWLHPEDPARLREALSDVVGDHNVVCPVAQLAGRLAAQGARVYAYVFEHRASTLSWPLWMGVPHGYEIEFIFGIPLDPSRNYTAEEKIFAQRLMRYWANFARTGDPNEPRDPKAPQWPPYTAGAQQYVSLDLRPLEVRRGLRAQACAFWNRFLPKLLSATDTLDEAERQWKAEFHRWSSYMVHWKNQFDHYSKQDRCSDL

rh-BuChE = rh-BuChE (Homo sapiens, UniProt P06276); assay: IC50 rh-BuChE; format: biochemical
Sequence of rh-BuChE (P06276 29-602): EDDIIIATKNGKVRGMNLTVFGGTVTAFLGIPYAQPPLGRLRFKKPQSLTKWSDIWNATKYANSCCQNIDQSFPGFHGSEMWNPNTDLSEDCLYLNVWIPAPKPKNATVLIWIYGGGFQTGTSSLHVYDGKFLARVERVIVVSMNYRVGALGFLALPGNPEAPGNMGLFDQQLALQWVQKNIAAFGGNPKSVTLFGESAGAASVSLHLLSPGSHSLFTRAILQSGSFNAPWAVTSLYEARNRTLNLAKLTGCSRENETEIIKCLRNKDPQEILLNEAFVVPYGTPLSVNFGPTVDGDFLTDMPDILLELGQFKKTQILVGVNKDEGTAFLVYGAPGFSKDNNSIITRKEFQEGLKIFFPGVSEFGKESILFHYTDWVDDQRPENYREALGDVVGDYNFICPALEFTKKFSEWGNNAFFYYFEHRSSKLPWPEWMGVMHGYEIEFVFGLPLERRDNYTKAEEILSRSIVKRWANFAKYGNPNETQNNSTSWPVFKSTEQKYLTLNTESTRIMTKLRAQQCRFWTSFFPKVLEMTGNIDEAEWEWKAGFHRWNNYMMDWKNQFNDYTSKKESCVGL

rh-AChE = rh-AChE (Homo sapiens, UniProt P22303); assay: biochemical; details: read-out: IC50 rh-AChE
Sequence of rh-AChE (P22303 32-614): as the sequence (P22303 32-614) above

AChE [2] = target: T2, AChE; details: Camps et al.; cited from earlier work
[3] = read-out: IC50 erythrocyte h-AChE

T1 sequence (P22303 32-617 isoform P22303-2 limits assumed): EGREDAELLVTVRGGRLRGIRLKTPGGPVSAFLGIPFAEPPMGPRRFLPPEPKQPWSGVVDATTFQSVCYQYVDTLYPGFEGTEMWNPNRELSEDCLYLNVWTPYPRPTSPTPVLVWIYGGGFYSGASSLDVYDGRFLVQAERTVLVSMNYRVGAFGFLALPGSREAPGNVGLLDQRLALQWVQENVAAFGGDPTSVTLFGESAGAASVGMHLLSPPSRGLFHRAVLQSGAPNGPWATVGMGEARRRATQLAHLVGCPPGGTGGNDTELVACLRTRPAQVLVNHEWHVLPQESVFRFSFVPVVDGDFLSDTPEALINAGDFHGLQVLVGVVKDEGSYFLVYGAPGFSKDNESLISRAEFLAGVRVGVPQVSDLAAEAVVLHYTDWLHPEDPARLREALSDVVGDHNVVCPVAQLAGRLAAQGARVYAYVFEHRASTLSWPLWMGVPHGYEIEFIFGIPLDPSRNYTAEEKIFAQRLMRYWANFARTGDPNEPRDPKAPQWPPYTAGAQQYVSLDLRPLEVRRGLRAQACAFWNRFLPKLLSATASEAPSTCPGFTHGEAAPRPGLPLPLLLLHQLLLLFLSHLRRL

SMILES	IC50 (erythrocyte h-AChE; [3]) [nM]	activity compared with Huprine X (AChE [1])	IC50 (rh-BuChE; read-out: IC50 rh-BuChE) [nM]	IC50 (rh-AChE) [nM]	IC50 (erythrocyte h-AChE) [nM]	IC50 (rh-BuChE) [nM]	IC50 (AChE [2]) [nM]
Nc1c2c(nc3cc(Cl)ccc13)CC1C=C(CCO)CC2C1 (centres unmarked) [HUP 2, 2-(12-Amino-3-chloro-6,7,10,11-tetrahydro-7,11-methanocycloocta[b]quinolin-9-yl) Ethanol]	6.15	as high as the Huprine X	1240	1.05 ± 0.13			
C=CC(=O)OCCC1=CC2Cc3nc4cc(Cl)ccc4c(N)c3C(C1)C2 (centres unmarked) [HUP 18, 2-(12-Amino-3-chloro-6,7,10,11-tetrahydro-7,11-methanocycloocta[b]quinolin-9-yl)ethyl Acrylate]	129		207 ± 16	20.4 ± 4.6			
CCOC(=O)C(CCC1=CC2Cc3nc4cc(Cl)ccc4c(N)c3C(C1)C2)C(=O)OCC (centres unmarked) [HUP 27, Diethyl[2-(12-Amino-3-chloro-6,7,10,11-tetrahydro-7,11-methanocycloocta[b]quinolin-9-yl)ethyl]malonate]				6.09 ± 0.42	46.4	319 ± 2	
COC(=O)CCCC1=CC2Cc3nc4cc(Cl)ccc4c(N)c3C(C1)C2 (centres unmarked) [HUP 29, Methyl 4-(12-Amino-3-chloro-6,7,10,11-tetrahydro-7,11-methanocycloocta[b]quinolin-9-yl)butanoate]				14.6 ± 1.7	37.6	124 ± 11	
Nc1c2c(nc3cc(Cl)ccc13)CC1C=C(CCCCO)CC2C1 (centres unmarked) [HUP 30, 4-(12-Amino-3-chloro-6,7,10,11-tetrahydro-7,11-methanocycloocta[b]quinolin-9-yl)butan-1-ol]	50.1		343 ± 43	22.4 ± 1.5			
CS(=O)(=O)OCCCCC1=CC2Cc3nc4cc(Cl)ccc4c(N)c3C(C1)C2 (centres unmarked) [HUP 31, 4-(12-Amino-3-chloro-6,7,10,11-tetrahydro-7,11-methanocycloocta[b]quinolin-9-yl)butyl Methanesulfonate]	13.3		243 ± 12	4.76 ± 1.68			
[N-]=[N+]=NCCCCC1=CC2Cc3nc4cc(Cl)ccc4c(N)c3C(C1)C2 (centres unmarked) [HUP 32, 9-(4-Azidobutyl)-3-chloro-6,7,10,11-tetrahydro-7,11-methanocycloocta[b]quinolin-12-amine]	68.1		260 ± 12	13.1 ± 4.7			
COC(=O)c1cn(CCCCC2=CC3Cc4nc5cc(Cl)ccc5c(N)c4C(C2)C3)nn1 (centres unmarked) [HUP 33, Methyl 1-[4-(12-Amino-3-chloro-6,7,10,11-tetrahydro-7,11-methanocycloocta[b]quinolin-9-yl)butyl]-1H-1,2,3-triazole-4-carboxylate]	10.7		291 ± 25	0.34 ± 0.12			
Nc1c2c(nc3cc(Cl)ccc13)CC1C=C(CCCCn3cc(CO)nn3)CC2C1 (centres unmarked) [HUP 34, {1-[4-(12-Amino-3-chloro-6,7,10,11-tetrahydro-7,11-methanocycloocta[b]quinolin-9-yl)butyl]-1H-1,2,3-triazol-4-yl}methanol Trifluoroacetic Acid]	6.91		213 ± 18	0.26 ± 0.08			
CCC1=CC2Cc3nc4cc(Cl)ccc4c(N)c3[C@@H](C1)C2 [Huprine X]							~1
